Data on 2 compounds can be found in EP0074599A1, “5,6-cis-Carbapenem derivatives, their production and use” (Takeda Chemical Industries, Ltd., priority 1981, dated 1983).

Common to all, as to assay: Minimal Inhibitory Concentration (MIC), agar dilution method
Format in all cases: cell-based
Holding throughout (parameters): unit not given here
In general terms: In agar dilution the substance is mixed into plates at graded concentrations.

For test [1], the system named is A. calcoaceticus IFO 13006. The conditions noted are these: Test Microorganism (16) A. calcoaceticus IFO 13006; Trypticase soy agar, 37°C for 18 hours. As for the experimental part: (§1) Minimal Inhibitory Concentration (MIC)
(§2) The Minimal Inhibitory Concentrations of the tested compounds were determined according to the agar dilution method. Namely, 1.0 ml each of aqueous solution of the tested compounds diluted by serial dilutions was poured into test petri dishes, subsequently 9.0 ml each of Trypticase soy agar was poured into the dishes and mixed. On each of the mixed agar plates, one loopful of bacterial suspension (about 10^8 CFU/ml) of test microorganism was streaked.
(§3) After the incubation at 37°C for 18 hours, the lowest concentration of the tested compounds in the medium which caused apparently complete inhibition of growth of the test microorganism was taken to be minimal inhibitory concentration.
(§4) • (1) S. aureus FDA 209P • (2) S. aureus 308 A-1 • (3) S. aureus 1840 • (4) E. coli NIHJ JC-2 • (5) E. coli 0-111 • (6) E. coli T-7 • (7) C. freundii IFO 12681 • (8) K. pneumoniae DT • (9) E. cloacae IFO 12937 • (10) S. marcescens IFO 12648 • (11) P. vulgaris IFO 3988 • (12) P.-mirabilis IFO 3849 • (13) P. morganii IFO 3168 • (14) P. aeruginosa IFO 3455 • (15) P. aeruginosa U 31 • (16) A. calcoaceticus IFO 13006

A further test relates to C. freundii IFO 12681. Particulars: Test Microorganism (7) C. freundii IFO 12681; Trypticase soy agar, 37°C for 18 hours. As for the experimental part:
as §1, §2, §3, §4

For the next test, the system named is E. cloacae IFO 12937. Particulars: Test Microorganism (9) E. cloacae IFO 12937; Trypticase soy agar, 37°C for 18 hours. As for the experimental part:
as §1, §2, §3, §4

The test system of another test is E. coli 0-111. The conditions noted are these: Test Microorganism (5) E. coli 0-111; Trypticase soy agar, 37°C for 18 hours. As for the experimental part: as §1, §2, §3, §4
The subject of a further test is E. coli NIHJ JC-2. The conditions noted are these: Test Microorganism (4) E. coli NIHJ JC-2; Trypticase soy agar, 37°C for 18 hours. As for the experimental part: as §1, §2, §3, §4
Another test concerns E. coli T-7. Particulars: Test Microorganism (6) E. coli T-7; Trypticase soy agar, 37°C for 18 hours. As for the experimental part:
as §1, §2, §3, §4

A further test deals with K. pneumoniae DT. The conditions noted are these: Test Microorganism (8) K. pneumoniae DT; Trypticase soy agar, 37°C for 18 hours. The procedure:
as §1, §2, §3, §4

The next test has as its system P. aeruginosa IFO 3455. Particulars: Test Microorganism (14) P. aeruginosa IFO 3455; Trypticase soy agar, 37°C for 18 hours. As for the experimental part: as §1, §2, §3, §4
The next test has as its system P. aeruginosa U 31. Particulars: Test Microorganism (15) P. aeruginosa U 31; Trypticase soy agar, 37°C for 18 hours. The procedure: as §1, §2, §3, §4
The subject of a further test is P. morganii IFO 3168. Particulars: Test Microorganism (13) P. morganii IFO 3168; Trypticase soy agar, 37°C for 18 hours. The procedure: as §1, §2, §3, §4
Another test concerns P. vulgaris IFO 3988. The conditions noted are these: Test Microorganism (11) P. vulgaris IFO 3988; Trypticase soy agar, 37°C for 18 hours. The procedure:
as §1, §2, §3, §4

For a further test, the system named is P.-mirabilis IFO 3849. Particulars: Test Microorganism (12) P.-mirabilis IFO 3849; Trypticase soy agar, 37°C for 18 hours. The procedure:
as §1, §2, §3, §4

The next test relates to S. aureus 1840. The conditions noted are these: Test Microorganism (3) S. aureus 1840; Trypticase soy agar, 37°C for 18 hours. As for the experimental part: as §1, §2, §3, §4
Another test has as its system S. aureus 308 A-1. Particulars: Test Microorganism (2) S. aureus 308 A-1; Trypticase soy agar, 37°C for 18 hours. As for the experimental part: as §1, §2, §3, §4
The subject of a further test is S. aureus FDA 209P. Particulars: Test Microorganism (1) S. aureus FDA 209P; Trypticase soy agar, 37°C for 18 hours. As for the experimental part:
as §1, §2, §3, §4

A further test deals with S. marcescens IFO 12648. Particulars: Test Microorganism (10) S. marcescens IFO 12648; Trypticase soy agar, 37°C for 18 hours. The procedure:
as §1, §2, §3, §4

Take `CC(C)(O)[C@@H]1C(=O)N2C(C(=O)O)=C(SCCN3CCCC3)C[C@H]12` [Example 49]: the “Minimal Inhibitory Concentration (MIC)” value is listed as 12.5 in test [1]; 3.13 in the test with C. freundii IFO 12681; 12.5 in the test with E. cloacae IFO 12937; 0.39 with E. coli 0-111; 0.78 in the test on E. coli NIHJ JC-2; 0.78 in the test on E. coli T-7. Further, the “Minimal Inhibitory Concentration (MIC)” value amounted to 6.25 in the test on K. pneumoniae DT; 12.5 in the test with P. aeruginosa IFO 3455; 50 in the test with P. aeruginosa U 31; 50 with P. morganii IFO 3168; 100 in the test with P. vulgaris IFO 3988; 50 with P.-mirabilis IFO 3849. Moreover, the “Minimal Inhibitory Concentration (MIC)” value in the test on S. aureus 1840 worked out at 0.78; with S. aureus 308 A-1, 0.39; in the test with S. aureus FDA 209P, 0.2; in the test on S. marcescens IFO 12648 it was 6.25.
For `CC(C)(O)[C@@H]1C(=O)N2C(C(=O)O)=C(SCCN3CCCCC3)C[C@H]12` [Example 51, 5,6-cis-3-(2-Piperidinoethylthio)-6-(1-hydroxy-1-methylethyl)-7-oxo-1-azabicyclo[3.2.0]hept-2-ene-carboxylic acid], the “Minimal Inhibitory Concentration (MIC)” value is given as 25 in test [1]; 3.13 in the test on C. freundii IFO 12681; 6.25 with E. cloacae IFO 12937; 0.39 in the test with E. coli 0-111; 0.78 in the test on E. coli NIHJ JC-2; 0.78 in the test with E. coli T-7. Also, the “Minimal Inhibitory Concentration (MIC)” value is recorded as 6.25 in the test on K. pneumoniae DT; 50 in the test on P. aeruginosa IFO 3455; above 100 in the test with P. aeruginosa U 31; 25 in the test with P. morganii IFO 3168; 25 with P. vulgaris IFO 3988; 25 in the test on P.-mirabilis IFO 3849. The “Minimal Inhibitory Concentration (MIC)” value in the test on S. aureus 1840 was determined as 0.78; in the test with S. aureus 308 A-1, 0.39; in the test on S. aureus FDA 209P, 0.2; in the test on S. marcescens IFO 12648, 6.25.
